Patent publication US10189863B2, “5,6-dihydro-4H-benzo[b]thieno-[2,3-d]azepine derivatives” (PULMOCIDE LIMITED, priority 2014, dated 2019)

Test system: RSV A2
Assay: Virus titre in air-liquid interface (ALI) cultured bronchial epithelial cells (plaque assay)
Format: cell-based, human respiratory syncytial virus
Details: for Effect on RSV titre (in words): early intervention
Method: Assessment of Virus Titre in Air-liquid Interface (ALI) Cultured Bronchial Epithelial Cells
ALI cultured human bronchial epithelial cells were sourced from Epithelix Sarl (Geneva, Switzerland) and maintained by changing the basal media every 3-4 days, whilst the apical surface was washed once weekly with PBS. On Day 0, the apical surface of each well was washed once with sterile PBS (300 μL) and the inserts were transferred to new 24-well plates containing fresh MucilAir culture medium (780 μL; EP04MM). RSV A2 (50 μL; diluted in MucilAir culture medium to give a final MOI of 0.01) was added to cells for one hr (37° C./5% CO2). For the purposes of standardizing MOI calculations, each MucilAir insert was estimated to contain 2×10^5 apical facing cells per well. Virus inoculum was removed with a pipette and inserts were washed twice with sterile PBS (300 μL).
Sampling was conducted by adding sterile PBS (300 μL) to the apical surface of each well for 5 min. The apical sample was then removed and transferred to tubes containing 50% sucrose dissolved in PBS (100 μL) before being stored at −80° C. This harvesting procedure was repeated daily beginning on day 0 and concluding on day 7.
ALI cultures were dosed apically with test compound on days 0-7 for “early intervention” protocols, or days 3-7 for “late intervention” protocols. The test compound (50 μL in 0.5% DMSO/PBS) was added to the apical surface and incubated (37° C./5% CO2) for 1 hr before being removed. Vehicle treatments (0.5% DMSO/PBS) were performed on the corresponding apical surfaces to ensure each well received the same number of manipulations. On day 5, the basal media was removed from each well and replenished with fresh MucilAir culture media as a necessary maintenance step for ALI culture cells.
Virus titre was quantified by plaque assay. HEp2 cells were grown in 24-well plates (Corning) for 48 hr prior to infection in DMEM containing 10% FBS until they attained 100% confluency. Collected samples were thawed at RT and ten-fold serial dilutions were prepared in serum-free DMEM. The growth medium from HEp2 cells was aspirated and replaced with 300 μL of serially diluted virus collections and left to infect at 37° C./5% CO2 for 4 hr. The infectious media was aspirated and replaced with Plaque Assay Overlay (500 μL; 1% methylcellulose in MEM, 2% FBS, 1% Pen Strep, 0.5 μg/mL amphotericin B), and left for 7 days at 37° C./5% CO2. Cells were fixed with ice-cold methanol for 10 min and blocked with 5% powdered milk (Marvel) in 0.05% PBS-tween (‘blocking buffer’) for 1 hr at RT. Anti-RSV F-protein antibody (2F7; Abcam: ab43812) was diluted to a 1:100 concentration in blocking buffer and added to cells for 1 hr at RT with shaking. Cells were washed using PBS and incubated with the secondary antibody (HRP conjugated goat anti-mouse secondary antibody (Dako P044701-2) diluted in 1:400 with blocking buffer) for 1 hr at RT with shaking. The secondary antibody solution was removed and cells were washed with PBS before the metal-enhanced development substrate DAB was prepared in ultra-pure water (according to manufacturer's instructions). Each well received 300 μL of development substrate (sigmaFAST D0426) until plaques were visible. Plaques were counted by eye and confirmed using light microscopy, allowing the calculation of plaque forming units per mL.

Cc1cnc(N2CC3(CCOCC3)C2)c(C(=O)Nc2ccc(C(=O)N3CCc4cc(C(=O)Nc5c(C)cccc5F)sc4-c4ccccc43)cc2)c1 [Example 5, N-(2-Fluoro-6-methylphenyl)-6-(4-(5-methyl-2-(7-oxa-2-azaspiro[3.5]nonan-2-yl)nicotinamido)benzoyl)-5,6-dihydro-4H-benzo[b]thieno[2,3-d]azepine-2-carboxamide]
Virus titre in apical wash, geometric mean ± SD (early intervention (days 0-7), 0.004 mg/mL, day 0): 0.0 ± 0.0 log PFU/mL | Virus titre in apical wash, geometric mean ± SD (early intervention (days 0-7), 0.004 mg/mL, day 1): 0.61 ± 0.86 log PFU/mL | Virus titre in apical wash, geometric mean ± SD (early intervention (days 0-7), 0.004 mg/mL, day 2): 3.1 ± 0.22 log PFU/mL | Virus titre in apical wash, geometric mean ± SD (early intervention (days 0-7), 0.004 mg/mL, day 3): 3.9 ± 0.18 log PFU/mL | Virus titre in apical wash, geometric mean ± SD (early intervention (days 0-7), 0.004 mg/mL, day 4): 4.1 ± 0.16 log PFU/mL | Virus titre in apical wash, geometric mean ± SD (early intervention (days 0-7), 0.004 mg/mL, day 5): 4.2 ± 0.12 log PFU/mL | Virus titre in apical wash, geometric mean ± SD (early intervention (days 0-7), 0.004 mg/mL, day 6): 3.2 ± 0.26 log PFU/mL | Virus titre in apical wash, geometric mean ± SD (early intervention (days 0-7), 0.004 mg/mL, day 7): 2.8 ± 0.43 log PFU/mL | Virus titre in apical wash, geometric mean ± SD (early intervention (days 0-7), 0.02 mg/mL, day 0): 0.0 ± 0.0 log PFU/mL | Virus titre in apical wash, geometric mean ± SD (early intervention (days 0-7), 0.02 mg/mL, day 1): 0.0 ± 0.0 log PFU/mL | Virus titre in apical wash, geometric mean ± SD (early intervention (days 0-7), 0.02 mg/mL, day 2): 0.0 ± 0.0 log PFU/mL | Virus titre in apical wash, geometric mean ± SD (early intervention (days 0-7), 0.02 mg/mL, day 3): 0.0 ± 0.0 log PFU/mL | Virus titre in apical wash, geometric mean ± SD (early intervention (days 0-7), 0.02 mg/mL, day 4): 1.4 ± 1.1 log PFU/mL | Virus titre in apical wash, geometric mean ± SD (early intervention (days 0-7), 0.02 mg/mL, day 5): 1.9 ± 1.4 log PFU/mL | Virus titre in apical wash, geometric mean ± SD (early intervention (days 0-7), 0.02 mg/mL, day 6): 0.0 ± 0.0 log PFU/mL | Virus titre in apical wash, geometric mean ± SD (early intervention (days 0-7), 0.02 mg/mL, day 7): 0.0 ± 0.0 log PFU/mL | Virus titre in apical wash, geometric mean ± SD (early intervention (days 0-7), 0.1 mg/mL, day 0): 0.0 ± 0.0 log PFU/mL | Virus titre in apical wash, geometric mean ± SD (early intervention (days 0-7), 0.1 mg/mL, day 1): 0.0 ± 0.0 log PFU/mL | Virus titre in apical wash, geometric mean ± SD (early intervention (days 0-7), 0.1 mg/mL, day 2): 0.0 ± 0.0 log PFU/mL | Virus titre in apical wash, geometric mean ± SD (early intervention (days 0-7), 0.1 mg/mL, day 3): 0.0 ± 0.0 log PFU/mL | Virus titre in apical wash, geometric mean ± SD (early intervention (days 0-7), 0.1 mg/mL, day 4): 0.0 ± 0.0 log PFU/mL | Virus titre in apical wash, geometric mean ± SD (early intervention (days 0-7), 0.1 mg/mL, day 5): 0.0 ± 0.0 log PFU/mL | Virus titre in apical wash, geometric mean ± SD (early intervention (days 0-7), 0.1 mg/mL, day 6): 0.0 ± 0.0 log PFU/mL | Virus titre in apical wash, geometric mean ± SD (early intervention (days 0-7), 0.1 mg/mL, day 7): 0.0 ± 0.0 log PFU/mL | Effect on RSV titre (in words) (0.1 μg/mL over 7 days): complete inhibition | Effect on RSV titre (in words) (apical well daily from day 0 to day 7): concentration dependent inhibition | Effect on virus titre (in words) (early or late stage intervention): completely inhibited virus titre | Virus titre in apical wash, geometric mean ± SD (late intervention (days 3-7), 0.02 mg/mL, day 0): 0.0 ± 0.0 log PFU/mL | Virus titre in apical wash, geometric mean ± SD (late intervention (days 3-7), 0.02 mg/mL, day 1): 1.6 ± 1.1 log PFU/mL | Virus titre in apical wash, geometric mean ± SD (late intervention (days 3-7), 0.02 mg/mL, day 2): 3.9 ± 0.15 log PFU/mL | Virus titre in apical wash, geometric mean ± SD (late intervention (days 3-7), 0.02 mg/mL, day 3): 5.2 ± 0.04 log PFU/mL | Virus titre in apical wash, geometric mean ± SD (late intervention (days 3-7), 0.02 mg/mL, day 4): 3.8 ± 0.50 log PFU/mL | Virus titre in apical wash, geometric mean ± SD (late intervention (days 3-7), 0.02 mg/mL, day 5): 3.6 ± 0.13 log PFU/mL | Virus titre in apical wash, geometric mean ± SD (late intervention (days 3-7), 0.02 mg/mL, day 6): 0.0 ± 0.0 log PFU/mL | Virus titre in apical wash, geometric mean ± SD (late intervention (days 3-7), 0.02 mg/mL, day 7): 1.3 ± 0.94 log PFU/mL | Virus titre in apical wash, geometric mean ± SD (late intervention (days 3-7), 0.1 mg/mL, day 0): 0.0 ± 0.0 log PFU/mL | Virus titre in apical wash, geometric mean ± SD (late intervention (days 3-7), 0.1 mg/mL, day 1): 2.3 ± 0.35 log PFU/mL | Virus titre in apical wash, geometric mean ± SD (late intervention (days 3-7), 0.1 mg/mL, day 2): 4.1 ± 0.14 log PFU/mL | Virus titre in apical wash, geometric mean ± SD (late intervention (days 3-7), 0.1 mg/mL, day 3): 5.0 ± 0.14 log PFU/mL | Virus titre in apical wash, geometric mean ± SD (late intervention (days 3-7), 0.1 mg/mL, day 4): 3.8 ± 0.31 log PFU/mL | Virus titre in apical wash, geometric mean ± SD (late intervention (days 3-7), 0.1 mg/mL, day 5): 1.7 ± 1.2 log PFU/mL | Virus titre in apical wash, geometric mean ± SD (late intervention (days 3-7), 0.1 mg/mL, day 6): 0.0 ± 0.0 log PFU/mL | Virus titre in apical wash, geometric mean ± SD (late intervention (days 3-7), 0.1 mg/mL, day 7): 0.0 ± 0.0 log PFU/mL | Effect on virus titre (in words) (late intervention, administered from day 3, days 6 and 7 post infection): dramatic reduction of virus titre
